Measured values as given in PMC3805374 (Life sciences, 2013).

Tests used:
FLAG-mDOPR [1] = target: T1, FLAG-mDOPR (Mus musculus, UniProt P32300); assay: Phosphorylation of the DOPR; format: cell-based; details: CHO-FLAG-DOPR/HA-D1R cells; 10 μM for 30 min
D1R = D1R (Rattus norvegicus, UniProt P18901); assay: cAMP level in NG108-15/HA-D1R and CHO-FLAG-DOPR/HA-D1R cells; format: cell-based; details: NG108-15/HA-D1R cells and CHO-FLAG-DOPR/HA-D1R cells; data not shown
endogenous DOPR = endogenous DOPR (Mus musculus, UniProt P32300); assay: DPDPE-stimulated [35S]GTPγS binding to membranes of NG 108-15-HA-D1R cells; format: biochemical, mouse neuroblastoma × rat glioma hybrid; details: NG 108-15-HA-D1R cells pretreated with 10 μM for 30 min, n=3
Sequence of endogenous DOPR (P32300 whole entry): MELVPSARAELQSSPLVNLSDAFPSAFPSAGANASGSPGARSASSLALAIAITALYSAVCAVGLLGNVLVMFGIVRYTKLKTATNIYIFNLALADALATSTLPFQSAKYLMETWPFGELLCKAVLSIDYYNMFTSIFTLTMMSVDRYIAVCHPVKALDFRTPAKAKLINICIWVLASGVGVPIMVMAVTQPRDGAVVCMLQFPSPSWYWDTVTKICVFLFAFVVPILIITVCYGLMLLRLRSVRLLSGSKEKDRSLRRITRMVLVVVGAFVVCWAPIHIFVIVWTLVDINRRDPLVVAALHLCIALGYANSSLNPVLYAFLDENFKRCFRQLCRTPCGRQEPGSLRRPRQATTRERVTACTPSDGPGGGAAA

FLAG-mouse DOPR = FLAG-mouse DOPR (Mus musculus, UniProt P32300); format: biochemical; details: CHO-FLAG-DOPR/HA-D1R cells pretreated with 10 μM for 30 min, n=3
Sequence of FLAG-mouse DOPR (P32300 whole entry): as above

FLAG-mDOPR [2] = target: T1, FLAG-mDOPR; format: cell-based; details: 10 μM pretreatment for 30 min or 24 h
ERK1/2 phosphorylation = assay: Immunoblot analysis of phosphorylated ERK1/2 in CHO-FLAG-DOPR/HA-D1R cells; format: cell-based, Chinese hamster; details: 10 μM for 30 min

T1 sequence (P32300 whole entry): as above
Sequence of D1R (P18901 whole entry): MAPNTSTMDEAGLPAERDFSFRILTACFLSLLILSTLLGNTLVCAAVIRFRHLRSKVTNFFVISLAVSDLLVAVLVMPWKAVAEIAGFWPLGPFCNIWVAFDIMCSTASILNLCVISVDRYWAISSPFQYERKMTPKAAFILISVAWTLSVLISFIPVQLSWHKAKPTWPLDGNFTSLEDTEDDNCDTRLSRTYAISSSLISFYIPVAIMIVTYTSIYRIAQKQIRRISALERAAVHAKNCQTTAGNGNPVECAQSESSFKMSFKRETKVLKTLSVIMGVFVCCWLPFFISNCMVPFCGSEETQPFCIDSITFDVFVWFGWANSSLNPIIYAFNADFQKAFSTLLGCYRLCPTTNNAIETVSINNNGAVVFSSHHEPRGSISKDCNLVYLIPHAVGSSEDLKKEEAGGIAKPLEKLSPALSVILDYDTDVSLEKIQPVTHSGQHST

Br.C=CCN1CCc2c(cc(O)c(O)c2Cl)C(c2ccccc2)C1 (racemic) [SKF-82958, (±)-chloro-APB HBr]
Phosphorylation of the DOPR (FLAG-mDOPR [1]): did not induce phosphorylation of the DOPR | cAMP level (D1R): dose-dependently increased cAMP level | Basal [35S]GTPγS binding after pretreatment (endogenous DOPR): 14.5 ± 1.9 fmol/mg protein | Basal [35S]GTPγS binding after pretreatment (FLAG-mouse DOPR): 42.6 ± 7.0 fmol/mg protein | Effect on total or cell surface DOPRs (FLAG-mDOPR [2]): did not affect total or cell surface DOPRs | ERK1/2 phosphorylation compared with the control (ERK1/2 phosphorylation): produced a marked increase in ERK1/2 phosphorylation
